Patent US20250042880A1 (UNIVERSITY OF KENTUCKY RESEARCH FOUNDATION, priority 2021, published 2025)
pIC50: −log10 of the molar value.

Tests used:
[1] = system: A2780 ovarian cancer cells; details: cited from earlier work
Pt2377 cells = assay: Cell proliferation inhibition assay, Pt2377; assay type: cell-based
Experimental: Cell proliferation inhibition assay-Cell proliferation inhibition assay was performed as previously reported (48). All compounds to be tested were dissolved at 10 mM in DMSO. The cells were seeded into 12-well plates at a density of 40,000 cells per well in 1 mL of culture medium and were cultured overnight at 37° C. Either 1 μL of the compounds or the vehicle control (DMSO) was added to the cells. After 5 days, the medium was removed, and 200 μL of 0.25% trypsin was added. The cells were resuspended in 800 μL phosphate-buffered saline (PBS) and counted with Vi-CELL XR 2.03 (Beckman Coulter, Inc. USA). The ratio R of the number of viable cells in the compound-treated group to the number of viable cells in the DMSO-treated group was called relative growth rate, and the growth inhibition was calculated as (1−R)*100.

GLUT1 = biological target: T1, GLUT1 (Homo sapiens, UniProt P11166); details: cited from earlier work
T1 sequence (P11166 1-492): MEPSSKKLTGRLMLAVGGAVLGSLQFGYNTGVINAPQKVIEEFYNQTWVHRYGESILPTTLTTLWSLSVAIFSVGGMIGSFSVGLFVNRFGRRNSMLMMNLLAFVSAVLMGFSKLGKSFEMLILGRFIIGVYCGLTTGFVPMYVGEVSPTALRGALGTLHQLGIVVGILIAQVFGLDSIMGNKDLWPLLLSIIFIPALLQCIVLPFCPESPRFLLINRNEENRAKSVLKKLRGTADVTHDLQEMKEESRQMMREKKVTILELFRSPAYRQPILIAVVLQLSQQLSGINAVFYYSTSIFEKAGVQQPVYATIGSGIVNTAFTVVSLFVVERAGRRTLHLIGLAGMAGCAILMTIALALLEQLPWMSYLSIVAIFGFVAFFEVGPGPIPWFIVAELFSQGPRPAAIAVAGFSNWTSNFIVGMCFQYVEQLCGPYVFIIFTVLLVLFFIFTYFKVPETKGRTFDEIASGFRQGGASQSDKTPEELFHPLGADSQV

SKOV-3 cells = details: growth inhibition; cited from earlier work
mitochondrial complex I = assay: Mitochondrial ETC complex activity using PMP-permeabilized cells; assay type: cell-based
Experimental: Mitochondrial ETC complex activity measurements using PMP-Measurements of mitochondrial ETC complex activity were performed using the Agilent Seahorse Assay with XF PMP (Agilent, Santa Clara, CA) according to the manufacturer's instructions. Mitochondrial assay solution (MAS) was prepared with 220 mM mannitol, 70 mM sucrose, 10 mM KH2PO4, 5 mM MgCl2, 2 mM HEPES, 1 mM EGTA, and 0.2% (w/v) fatty acid free BSA. Cells were gen Ly washed with MAS and cell media was replaced with MAS supplemented with 4 mM adenosine diphosphate (ADP), 10 mM pyruvate, and 1 nM PMP. After calibration, the test was prompμLy carried out by measuring baseline with two cycles of 0.5 min mixing, 0.5 min waiting, and 2 min measuring. Following the baseline measurements, DMSO, test compounds or 2 μM rotenone, 10 mM succinate, 2 μM antimycin A, and a combination of 10 mM ascorbate and 100 μM TMPD were sequentially injected. The experiment data were then normalized to cell counts using Biotek Cytation 1 (BioTek Instruments, Winooski, VT, USA).
Mitochondrial ETC complex activity was measured using the Agilent Seahorse Assay with XF permeabilizer (PMP; Agilent) in compliance with the manufacturer's protocol. […] Following calibration, the baseline OCR was measured with cycles of 0.5-minute mixing, 0.5-minute waiting, and 2-minute measuring to perform the test. […]

| SMILES | sensitivity of A2780 ovarian cancer cells [1] | inhibition of proliferation of Pt2377 cells (Pt2377 cells) | potency for the GLUT1 transporter (GLUT1) | selectivity factor for GLUT1 in comparison with GLUT2, GLUT3 and GLUT4 (GLUT1) | pIC50 (SKOV-3 cells) | ETC complex inhibited (conclusion of Seahorse assays) (mitochondrial complex I; ETC complex-specific inhibitors and PMP-permeabilized cells) | pyruvate/NADH-linked respiration (mitochondrial complex I; PMP-permeabilized CRC cells) |
| --- | --- | --- | --- | --- | --- | --- | --- |
| Cc1c(NC(=O)c2cc(C(N)=O)nc3cc(F)ccc23)c(C(F)(F)F)nn1Cc1ccc(C#N)cc1 [BAY-876, N^4-[1-(4-cyanobenzyl)-5-methyl-3-(trifluoromethyl)-1H-pyrazol-4-yl]-7-fluoroquinoline-2,4-dicarboxamide] | resistant | inhibited the proliferation of these cell lines at nanomolar concentrations | single-digit, nanomolar | > 100 | 6.73 | – | – |
| O=c1c(-c2ccc(Cl)c(Cl)c2)coc2cc(OCCN3CCN(CCO)CC3)ccc12 [DBI-6, 3-(3,4-dichlorophenyl)-7-(2-(4-(2-hydroxyethyl)piperazin-1-yl)ethoxy)-4H-chromen-4-one] | – | – | – | – | – | complex I inhibitor | reduced pyruvate/NADH-linked respiration |
